In patent US7033996B2, “Method for the treatment of vitamin D related disease” (University of Medicine & Dentistry of New Jersey, priority 2001, dated 2006):
Entries after “also recorded” stand apart in the source; their conditions may differ.

Assays:
[1] = system: 24(OH)ase mRNA; test: Time course of mRNA induction by Northern blot in UMR osteoblastic cells; type: cell-based; conditions: time course 0–24 h
[2] = system: C/EBPβ mRNA; test: as above; type: cell-based; conditions: time course 0–24 h
[3] = system: C/EBPβ; test: Northern analysis verifying C/EBPβ induction in kidney and osteoblastic cells; type: cell-based
[4] = system: C/EBPβ protein; test: Western blot of C/EBPβ protein in primary murine osteoblasts; type: cell-based
From the text: Induction of C/EBPβ protein is examined by Western blot using nuclear extracts (antibody from Santa Cruz).

[5] = system: hVDR promoter; test: PKA mediated hVDR promoter (-1500/+60) luciferase transcription with cotransfected C/EBPβ; type: cell-based, human; conditions: JEG cells, 2 μg VDR promoter, 1 μg PKA expression vector, 5 μg C/EBPβ
Procedure: FIG. 2 is an illustration of C/EBPβ enhancement of PKA mediated transcriptional activation of hVDR. 2 μg of the VDR promoter (−1500/+60) cotransfected in JEG cells with 1 μg of PKA expression vector in the presence or absence of 5 μg C/EBPβ.
cAMP or PTH induced enhancement of 24(OH)ase transcription is due at least in part to an upregulation of VDR. Since two putative C/EBPβ sites have been reported in the hVDR promoter (at −1490 and at −920; 143) the determination of the effect of C/EBPβ on VDR promoter activity is important. We have isolated the hVDR promoter fragment −1500/+60 by PCR and ligated it into the PGL-2 luciferase vector and found in our studies that C/EBPβ enhances PKA mediated transcription of the VDR (FIG. 2).

[6] = system: rat 24(OH)ase promoter; test: 1,25(OH)2D3 induced 24(OH)ase promoter transcription with cotransfected C/EBPβ; conditions: COS cells cotransfected with hVDR and C/EBPβ, 1,25(OH)2D3 for 24 h

| Molecule | first significant induction of 24(OH)ase mRNA after treatment [1] [h] | first significant induction of C/EBPβ mRNA after treatment [2] [h] | induction of C/EBPβ by Northern analysis [3] | induction of C/EBPβ protein by Western blot [4] | effect of C/EBPβ on PKA mediated transcription of the VDR [5] | effect of C/EBPβ on 1,25(OH)2D3 induced 24(OH)ase transcription [6] |
| --- | --- | --- | --- | --- | --- | --- |
| C=C1/C(=C\C=C2/CCC[C@]3(C)[C@@H]([C@H](C)CCCC(C)(C)O)CC[C@@H]23)C[C@@H](O)C[C@@H]1O [1,25(OH)2D3, 1,25-dihydroxyvitamin D3] | 9 | 3 | induction | induction | – | – |
| C/EBPβ: CCAATT enhancer binding protein β, a transcription factor, supplied by pMEX C/EBPβ expression vector (protein, listed as Homo sapiens) APAPAPASSGQHHDFLSDLFSDDYGGKNCKKPAEYGYVSLGRLGAAKGAHPPPPPPPPPAELKAEPGFEPADCKRKEEAGAPGGGAGMAAGFPYALRAGSSGSLSTSSSSSPPGTPSPADAKAPPTACYAGAGPAPSQVKSKAKKTVRRERNNIAVRKSRDKAKMRNLETQHKVLELTAENERLQKKVEQLSRELSPEPLLASSGHC | – | – | – | – | enhances | markedly enhanced; also recorded: enhanced transcriptional response |
